This assay in a line: Inhibition of yeast chymotrypsin-like 20S proteasome using suc-LLVY-AMC as substrate pretreated for 1 hr followed by substrate addition measured every 2 mins for 1 hr by fluorescence assay. The arrangement: species or system Saccharomyces cerevisiae.
Consider `Nc1nc(/C=C/CNC(=O)c2cc(Br)c[nH]2)c[nH]1`, for which the IC50 came to 23 µM.

In the case of `Nc1ncc(/C=C/CNC(=O)c2ccc(Br)[nH]2)[nH]1`, the IC50 came out at 27 µM.

`NC1=N[C@@]23CCCN2C(=O)c2[nH]cc(Br)c2[C@H]3N1`: the half-maximal inhibitory concentration (IC50) amounted to 69 µM.

For `N=C1N[C@@H](O)[C@@]2(N1)[C@@H](Cl)[C@H](CN)[C@H]1CN3C(=O)c4ccc(Br)n4[C@@H]4NC(=N)N[C@@]43[C@@H]12`, the IC50 worked out at 9.2 µM.

Consider `N=C(N)Nc1c2n(c(=O)c3[nH]c(Br)cc13)CCC2`, for which the IC50 was above 100 µM.

`N=C(N)Nc1c2n(c(=O)c3[nH]cc(Br)c13)CCC2`: the 50% inhibitory concentration (IC50) was above 100 µM.

As usually defined, the IC50 is the point on the concentration scale where inhibition reaches its midpoint.

The record behind these values is ChEMBL document CHEMBL4196239, “Bromopyrrole Alkaloid Inhibitors of the Proteasome Isolated from a Dictyonella sp. Marine Sponge Collected at the Amazon River Mouth” (J Nat Prod, 2018).
